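Interpolation was linear, between the two tested concentrations surrounding the appropriate level; five concentrations were tested over 48 hours in 96-well plates. GI50 = concentration required for 50% inhibition of growth.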 Calls of active or inactive are those of the source. Rule as the data show it: active = GI50 up to about 1.1 µM and inactive = higher.
Experiments:
Assay in all cases: growth of human tumour cells (NCI), 48 h
[1] = system: MOLT-4
[2] = system: HCT-116
[3] = system: CAKI-1
[4] = system: SK-MEL-28
[5] = system: OVCAR-4
[6] = system: U-251
[7] = system: M14
[8] = system: NCI-H23
[9] = system: A498
[10] = system: LOX IMVI
[11] = system: RPMI-8226
[12] = system: NCI-H522
[13] = system: UACC-62
[14] = system: BT-549
[15] = system: MCF7
[16] = system: DU-145
[17] = system: SF-295
[18] = system: EKVX
[19] = system: OVCAR-8
[20] = system: HOP-92
[21] = system: SR
[22] = system: K562
[23] = system: OVCAR-5
[24] = system: PC-3
[25] = system: SNB-19
[26] = system: SF-268
[27] = system: CCRF-CEM
[28] = system: MDA-N
[29] = system: MDA-MB-231
[30] = system: KM12
[31] = system: HOP-62
[32] = system: SW-620
[33] = system: NCI-H460
[34] = system: OVCAR-3
[35] = system: SK-MEL-2
[36] = system: ACHN
[37] = system: SF-539
[38] = system: HCT-15
[39] = system: TK-10
[40] = system: NCI/ADR-RES
[41] = system: Malme-3M
[42] = system: MDA-MB-435
[43] = system: Hs-578T
[44] = system: UACC-257
[45] = system: COLO 205
[46] = system: NCI-H226
[47] = system: A549
[48] = system: SN12C
[49] = system: 786-0
[50] = system: IGROV-1
[51] = system: UO-31
[52] = system: HT-29
[53] = system: HCC 2998
[54] = system: SK-MEL-5
[55] = system: SNB-75
[56] = system: RXF 393
[57] = system: SK-OV-3
[58] = system: HL-60

## CC1CCCOc2ccc(cc2)/C=N\c2ccc(cc2)CCc2ccc(cc2)/N=C\c2ccc(cc2)OCCC1
[1]
  GI50: > 100 µM (inactive)
[2]
  GI50: > 100 µM (inactive)
[3]
  GI50: > 100 µM (inactive)
[4]
  GI50: > 100 µM (inactive)
[5]
  GI50: > 100 µM (inactive)
[6]
  GI50: > 100 µM (inactive)
[7]
  GI50: > 100 µM (inactive)
[8]
  GI50: > 100 µM (inactive)
[9]
  GI50: > 100 µM (inactive)
[10]
  GI50: > 100 µM (inactive)
[11]
  GI50: > 100 µM (inactive)
[12]
  GI50: > 100 µM (inactive)
[13]
  GI50: > 100 µM (inactive)
[14]
  GI50: > 100 µM (inactive)
[15]
  GI50: > 100 µM (inactive)
[16]
  GI50: > 100 µM (inactive)
[17]
  GI50: > 100 µM (inactive)
[18]
  GI50: > 100 µM (inactive)
[19]
  GI50: > 100 µM (inactive)
[20]
  GI50: > 100 µM (inactive)
[21]
  GI50: > 100 µM (inactive)
[22]
  GI50: > 100 µM (inactive)
[23]
  GI50: > 100 µM (inactive)
[24]
  GI50: > 100 µM (inactive)
[25]
  GI50: > 100 µM (inactive)
[26]
  GI50: > 100 µM (inactive)
[27]
  GI50: > 100 µM (inactive)
[28]
  GI50: > 100 µM (inactive)
[29]
  GI50: > 100 µM (inactive)
[30]
  GI50: > 100 µM (inactive)
[31]
  GI50: > 100 µM (inactive)
[32]
  GI50: > 100 µM (inactive)
[33]
  GI50: > 100 µM (inactive)
[34]
  GI50: > 100 µM (inactive)
[35]
  GI50: > 100 µM (inactive)
[36]
  GI50: > 100 µM (inactive)
[37]
  GI50: > 100 µM (inactive)
[38]
  GI50: > 100 µM
[39]
  GI50: > 100 µM (inactive)
[40]
  GI50: > 100 µM (inactive)
[41]
  GI50: > 100 µM (inactive)
[42]
  GI50: > 100 µM (inactive)
[43]
  GI50: > 100 µM (inactive)
[44]
  GI50: > 100 µM (inactive)
[45]
  GI50: > 100 µM (inactive)
[46]
  GI50: > 100 µM (inactive)
[47]
  GI50: > 100 µM (inactive)
[48]
  GI50: > 100 µM (inactive)
[49]
  GI50: > 100 µM (inactive)
[50]
  GI50: > 100 µM (inactive)
[51]
  GI50: > 100 µM (inactive)
[52]
  GI50: > 100 µM (inactive)
[53]
  GI50: > 100 µM (inactive)
[54]
  GI50: > 100 µM (inactive)
[55]
  GI50: > 100 µM (inactive)

## COC(=O)Cc1c([C@H]2[C@H](CC(=O)OC)c3ccccc3N2S(=O)(=O)c2ccc(C)cc2)[nH]c2ccccc12
[1]
  GI50: 3.4 µM (inactive)
[2]
  GI50: > 100 µM (inactive)
[3]
  GI50: > 100 µM (inactive)
[4]
  GI50: > 100 µM (inactive)
[5]
  GI50: > 100 µM (inactive)
[6]
  GI50: > 100 µM (inactive)
[7]
  GI50: > 100 µM (inactive)
[8]
  GI50: > 100 µM (inactive)
[9]
  GI50: > 100 µM (inactive)
[10]
  GI50: > 100 µM (inactive)
[11]
  GI50: 7 µM (inactive)
[12]
  GI50: > 28.4 µM (inactive)
[56]
  GI50: > 100 µM (inactive)
[13]
  GI50: > 100 µM (inactive)
[14]
  GI50: > 100 µM (inactive)
[15]
  GI50: > 100 µM (inactive)
[16]
  GI50: > 100 µM (inactive)
[17]
  GI50: > 100 µM (inactive)
[19]
  GI50: > 100 µM (inactive)
[20]
  GI50: > 100 µM (inactive)
[21]
  GI50: 9.33 µM (inactive)
[22]
  GI50: 31.4 µM (inactive)
[57]
  GI50: > 100 µM (inactive)
[23]
  GI50: > 100 µM (inactive)
[24]
  GI50: > 100 µM (inactive)
[25]
  GI50: > 100 µM (inactive)
[26]
  GI50: > 100 µM (inactive)
[27]
  GI50: 18.5 µM (inactive)
[28]
  GI50: > 100 µM (inactive)
[29]
  GI50: > 100 µM (inactive)
[30]
  GI50: > 56.9 µM (inactive)
[31]
  GI50: > 100 µM (inactive)
[32]
  GI50: > 100 µM (inactive)
[33]
  GI50: > 100 µM (inactive)
[34]
  GI50: > 100 µM (inactive)
[35]
  GI50: > 100 µM (inactive)
[36]
  GI50: > 100 µM (inactive)
[37]
  GI50: > 100 µM (inactive)
[38]
  GI50: > 100 µM
[39]
  GI50: > 100 µM (inactive)
[40]
  GI50: > 100 µM (inactive)
[41]
  GI50: 0.208 µM (active)
[42]
  GI50: > 100 µM (inactive)
[58]
  GI50: > 100 µM (inactive)
[43]
  GI50: > 100 µM (inactive)
[44]
  GI50: > 100 µM (inactive)
[45]
  GI50: > 100 µM (inactive)
[46]
  GI50: > 100 µM (inactive)
[47]
  GI50: > 100 µM (inactive)
[48]
  GI50: > 100 µM (inactive)
[49]
  GI50: > 100 µM (inactive)
[50]
  GI50: 3.13 µM (inactive)
[51]
  GI50: > 100 µM (inactive)
[52]
  GI50: > 100 µM (inactive)
[53]
  GI50: > 100 µM (inactive)
[54]
  GI50: > 100 µM (inactive)

— ChEMBL document CHEMBL1201862, “PubChem BioAssay data set” (2004)
